Data on 3 molecules can be found in ChEMBL document CHEMBL1649222, “In vitro antibacterial activity of acyl-lysyl oligomers against Helicobacter pylori” (Antimicrob Agents Chemother, 2009).

The structures appear in SMILES notation. In brackets after ≈: the same amount, converted by molar mass. Activity calls are given as the source filed them. Non-standard residues stand in square brackets, D forms with d. Residues, ends and D or L forms follow the SMILES beside them. *: point of attachment. Lauroyl = CCCCCCCCCCCC(=O)*; 12Ado = NCCCCCCCCCCCC(=O)O

A short description of data set [1]: Toxicity in horse erythrocytes assessed as hemolytic activity at 80 uM. It counts as cell-based, Equus caballus. To be noted: erythrocyte.
The test system of data set [2] is Helicobacter pylori. Briefly: Antimicrobial activity against Helicobacter pylori 7.13 at MBC by time-kill analysis. Format: functional.
The subject of data set [3] is Helicobacter pylori. Briefly: Antimicrobial activity against Helicobacter pylori G27 at MBC by time-kill analysis. Format: functional.
Data set [4] relates to Helicobacter pylori. Briefly: Antimicrobial activity against Helicobacter pylori J99 at MBC by time-kill analysis. It counts as functional.
A short description of data set [5]: Antimicrobial activity against Helicobacter pylori 26695. Format: functional.
Data set [6] concerns Helicobacter pylori. Briefly: Bactericidal activity against Helicobacter pylori G27 preincubated at 42 degC for 1 hr. It counts as functional.
In data set [7] the test system is Helicobacter pylori. Briefly: Antimicrobial activity against Helicobacter pylori SS1. Format: functional.
Data set [8] can be described thus: Toxicity in horse erythrocytes assessed as hemolytic activity at 0.625 to 40 uM. Format: cell-based, Equus caballus. To be noted: erythrocyte.
The test system of data set [9] is Helicobacter pylori. Briefly: Bactericidal activity against Helicobacter pylori G27 preincubated at 95 degC for 1 hr. It counts as functional.
The subject of data set [10] is Helicobacter pylori. Briefly: Antimicrobial activity against Helicobacter pylori G27 at 2 times MBC by time-kill analysis. It counts as functional.
Data set [11] deals with Helicobacter pylori. Briefly: Bactericidal activity against Helicobacter pylori G27 preincubated at 55 degC for 1 hr. Format: functional.
The subject of data set [12] is Helicobacter pylori. Briefly: Bactericidal activity against Helicobacter pylori G27 at 40 uM after 10 hrs. It counts as functional.
Data set [13] relates to Helicobacter pylori. Briefly: Bactericidal activity against Helicobacter pylori 7.13 at 40 uM after 10 hrs. It counts as functional, organism-based.
Data set [14] deals with Helicobacter pylori. Briefly: Bactericidal activity against Helicobacter pylori G27 preincubated at 60 degC for 1 hr. Format: functional.
The subject of data set [15] is Helicobacter pylori. Briefly: Bactericidal activity against Helicobacter pylori G27 preincubated at 50 degC for 1 hr. Format: functional.
Data set [16] deals with Helicobacter pylori. Briefly: Antimicrobial activity against Helicobacter pylori J99 at 2 times MBC by time-kill analysis. Format: functional.
Data set [17] concerns Helicobacter pylori. Briefly: Antimicrobial activity against Helicobacter pylori J99. It counts as functional.
The test system of data set [18] is Helicobacter pylori. Briefly: Antimicrobial activity against Helicobacter pylori 7.13 at 2 times MBC by time-kill analysis. It counts as functional.
In data set [19] the test system is Helicobacter pylori. Briefly: Antimicrobial activity against Helicobacter pylori HPAG1. It counts as functional.
In data set [20] the test system is Helicobacter pylori. Briefly: Bactericidal activity against Helicobacter pylori G27 preincubated at 4 degC for 1 hr. Format: functional.
For data set [21], the system named is Helicobacter pylori. Briefly: Bactericidal activity against Helicobacter pylori G27 at pH 6.9. It counts as functional.
In data set [22] the test system is Helicobacter pylori. Briefly: Antimicrobial activity against Helicobacter pylori G27. It counts as functional.
Data set [23] relates to Helicobacter pylori. Briefly: Antimicrobial activity against Helicobacter pylori 7.13. Format: functional.
The subject of data set [24] is Helicobacter pylori. Briefly: Bactericidal activity against Helicobacter pylori G27 preincubated at 37 degC for 1 hr. Format: functional.
In data set [25] the test system is Helicobacter pylori. Briefly: Bactericidal activity against Helicobacter pylori G27 at pH 4.5. It counts as functional.
For data set [26], the system named is Helicobacter pylori. Briefly: Bactericidal activity against Helicobacter pylori J99 at 40 uM after 10 hrs. It counts as functional.

By MBC is commonly meant the smallest concentration meeting the test's criterion for killing. The low end stands for more potent killing, the high end for less potent killing. One may read the MIC as the lowest concentration found to suppress growth. A higher MIC goes with weaker potency. As to `CCCCCCCCCCCC(=O)N[C@@H](CCCCN)C(=O)N[C@@H](CCCCN)C(=O)NCCCCCCCCCCCC(=O)N[C@@H](CCCCN)C(=O)N[C@@H](CCCCN)C(=O)NCCCCCCCCCCCC(=O)N[C@@H](CCCCN)C(N)=O` (Lauroyl-KK[12Ado]KK[12Ado]K-NH2), the Activity entry in data set [1] was “Toxic”; in data set [8] it was “Non-toxic”. Besides, the Time in the data set on Helicobacter pylori [2] was 6.1 h; in the data set with Helicobacter pylori [3] it was 6.1 h; with Helicobacter pylori [4], 3.8 h; in the data set with Helicobacter pylori [10], 2.7 h; in the data set on Helicobacter pylori [16], 1.8 h; in the data set on Helicobacter pylori [18] it was 3.5 h. For the same molecule, the MBC was determined as 70 µM (≈ 86.4 µg/mL) in data set [5]; 45 µM (≈ 55.6 µg/mL) in the data set on Helicobacter pylori [7]; 20 µM (≈ 24.7 µg/mL) against Helicobacter pylori [17]; 40 µM (≈ 49.4 µg/mL) against Helicobacter pylori [19]; 15 µM (≈ 18.5 µg/mL) in the data set on Helicobacter pylori [22]; 14.5 µM (≈ 17.9 µg/mL) with Helicobacter pylori [23]. Besides, the MIC is 25 µM (≈ 30.9 µg/mL) in data set [5]; 25.5 µM (≈ 31.5 µg/mL) against Helicobacter pylori [7]; 10.5 µM (≈ 13 µg/mL) in the data set with Helicobacter pylori [17]; 10.5 µM (≈ 13 µg/mL) in the data set with Helicobacter pylori [19]; 6.5 µM (≈ 8.03 µg/mL) with Helicobacter pylori [22]; under 9 µM in the data set on Helicobacter pylori [23]. Also, the result in the data set with Helicobacter pylori [6], in the data set with Helicobacter pylori [9], in the data set with Helicobacter pylori [11], in the data set with Helicobacter pylori [12], in the data set on Helicobacter pylori [13] and in the data set with Helicobacter pylori [14] was Active. For the same molecule, the result in the data set with Helicobacter pylori [15], with Helicobacter pylori [20], in the data set on Helicobacter pylori [21], in the data set on Helicobacter pylori [24] and in the data set with Helicobacter pylori [26] was Active. Besides, the outcome in the data set on Helicobacter pylori [25] was inactive.

As for `CCCCCCCCCCCC(=O)N[C@@H](CCCCN)C(=O)NCCCCCCCC(=O)N[C@@H](CCCCN)C(=O)NCCCCCCCC(=O)N[C@@H](CCCCN)C(=O)NCCCCCCCC(=O)N[C@@H](CCCCN)C(=O)NCCCCCCCC(=O)N[C@@H](CCCCN)C(=O)NCCCCCCCC(=O)N[C@@H](CCCCN)C(=O)NCCCCCCCC(=O)N[C@@H](CCCCN)C(=O)NCCCCCCCC(=O)N[C@@H](CCCCN)C(N)=O`, in the data set on Helicobacter pylori [22], the MBC is over 100 µM and the MIC is 25 µM (≈ 55.3 µg/mL).

In the data set with Helicobacter pylori [22], `CCCCCCCCCCCC(=O)N[C@@H](CCCCN)C(=O)NCCCCCCCC(=O)N[C@@H](CCCCN)C(=O)NCCCCCCCC(=O)N[C@@H](CCCCN)C(=O)NCCCCCCCC(=O)N[C@@H](CCCCN)C(=O)NCCCCCCCC(=O)N[C@@H](CCCCN)C(=O)NCCCCCCCC(=O)N[C@@H](CCCCN)C(N)=O` registered a minimal bactericidal concentration (MBC) of over 100 µM and an MIC of 25 µM (≈ 41.9 µg/mL).
